Laboratory results as given in ChEMBL document CHEMBL1151717, “In vivo active aldosterone synthase inhibitors with improved selectivity: lead optimization providing a series of pyridine substituted 3,4-dihydro-1H-quinolin-2-one derivatives” (J Med Chem, 2008).

Assays:
[1] = target: T1, Cytochrome P450 11B2, mitochondrial (Homo sapiens, UniProt P19099); experiment: Inhibition of human CYP11B2 expressed in hamster V79 MZh cells at 500 nM; type: cell-based; settings: V79MZh
T1 sequence (P19099 whole entry): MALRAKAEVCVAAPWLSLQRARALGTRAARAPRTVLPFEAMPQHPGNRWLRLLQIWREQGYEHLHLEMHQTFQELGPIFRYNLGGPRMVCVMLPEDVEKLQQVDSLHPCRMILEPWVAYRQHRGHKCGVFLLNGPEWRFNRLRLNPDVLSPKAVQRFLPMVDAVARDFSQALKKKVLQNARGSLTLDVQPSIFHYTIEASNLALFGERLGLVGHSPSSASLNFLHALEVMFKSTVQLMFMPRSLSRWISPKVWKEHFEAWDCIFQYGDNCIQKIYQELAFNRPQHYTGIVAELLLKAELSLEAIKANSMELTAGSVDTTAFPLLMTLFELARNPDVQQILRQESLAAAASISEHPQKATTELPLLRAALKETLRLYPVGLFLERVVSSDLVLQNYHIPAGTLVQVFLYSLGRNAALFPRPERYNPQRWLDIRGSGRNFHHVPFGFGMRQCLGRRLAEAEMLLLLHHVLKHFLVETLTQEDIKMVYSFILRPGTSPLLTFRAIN

[2] = target: T2, CYP19 (aromatase) (Homo sapiens, UniProt P11511); experiment: Inhibition of human placental CYP19 at 500 nM; type: functional
T2 sequence (P11511 whole entry): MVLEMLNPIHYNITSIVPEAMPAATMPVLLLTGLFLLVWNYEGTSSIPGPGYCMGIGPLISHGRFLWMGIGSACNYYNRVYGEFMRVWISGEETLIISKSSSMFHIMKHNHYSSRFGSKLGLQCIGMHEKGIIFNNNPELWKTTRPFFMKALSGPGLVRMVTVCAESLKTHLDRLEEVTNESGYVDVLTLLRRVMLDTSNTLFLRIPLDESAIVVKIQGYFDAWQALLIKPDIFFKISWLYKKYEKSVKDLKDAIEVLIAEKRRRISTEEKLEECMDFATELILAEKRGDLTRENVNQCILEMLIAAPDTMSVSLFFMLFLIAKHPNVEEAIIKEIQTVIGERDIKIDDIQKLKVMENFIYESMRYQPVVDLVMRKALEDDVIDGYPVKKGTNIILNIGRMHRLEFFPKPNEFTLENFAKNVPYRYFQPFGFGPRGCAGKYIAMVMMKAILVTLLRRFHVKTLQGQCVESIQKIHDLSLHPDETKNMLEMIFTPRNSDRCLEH

[3] = target: T3, CYP1A2 (Homo sapiens, UniProt P05177); experiment: Inhibition of human recombinant CYP1A2 expressed in baculovirus-infected insect microsomes at 2 uM; type: ADME, Microsome
T3 sequence (P05177 whole entry): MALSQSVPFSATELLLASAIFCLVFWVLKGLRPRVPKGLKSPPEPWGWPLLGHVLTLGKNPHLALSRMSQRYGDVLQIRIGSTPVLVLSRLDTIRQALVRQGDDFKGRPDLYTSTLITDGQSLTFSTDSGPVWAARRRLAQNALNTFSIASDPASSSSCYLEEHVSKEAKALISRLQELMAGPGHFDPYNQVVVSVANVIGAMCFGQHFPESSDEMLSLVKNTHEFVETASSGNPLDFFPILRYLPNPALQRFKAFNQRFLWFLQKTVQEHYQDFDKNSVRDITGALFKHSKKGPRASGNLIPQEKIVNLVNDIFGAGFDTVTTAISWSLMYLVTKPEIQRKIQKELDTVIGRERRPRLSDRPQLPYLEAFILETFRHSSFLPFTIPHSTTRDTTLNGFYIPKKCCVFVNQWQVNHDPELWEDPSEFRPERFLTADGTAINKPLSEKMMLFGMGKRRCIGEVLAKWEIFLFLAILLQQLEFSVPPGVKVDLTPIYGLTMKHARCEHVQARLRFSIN

[4] = target: T4, Cytochrome P450 2B6 (Homo sapiens, UniProt P20813); experiment: Inhibition of human recombinant CYP2B6 expressed in baculovirus-infected insect microsomes; type: ADME, Microsome
T4 sequence (P20813 whole entry): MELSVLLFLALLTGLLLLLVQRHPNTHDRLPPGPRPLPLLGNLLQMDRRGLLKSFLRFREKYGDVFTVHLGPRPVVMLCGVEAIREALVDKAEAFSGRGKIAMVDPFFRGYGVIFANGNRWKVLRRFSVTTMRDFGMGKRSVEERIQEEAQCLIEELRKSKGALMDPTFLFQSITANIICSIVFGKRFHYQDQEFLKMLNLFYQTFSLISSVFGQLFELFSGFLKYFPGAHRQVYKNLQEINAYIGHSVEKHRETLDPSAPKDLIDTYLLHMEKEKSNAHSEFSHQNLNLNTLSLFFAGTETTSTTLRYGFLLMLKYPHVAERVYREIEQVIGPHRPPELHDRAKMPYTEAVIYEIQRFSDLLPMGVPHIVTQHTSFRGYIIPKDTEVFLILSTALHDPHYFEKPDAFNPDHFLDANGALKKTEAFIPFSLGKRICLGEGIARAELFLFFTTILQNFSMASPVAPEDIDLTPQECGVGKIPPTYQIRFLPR

[5] = target: Cytochrome P450 2C9 (Homo sapiens, UniProt P11712); experiment: Inhibition of human recombinant CYP2C9 expressed in baculovirus-infected insect microsomes; type: ADME, Microsome
[6] = target: Cytochrome P450 2C19 (Homo sapiens, UniProt P33261); experiment: Inhibition of human recombinant CYP2C19 expressed in baculovirus-infected insect microsomes; type: ADME, Microsome
[7] = target: Cytochrome P450 2D6 (Homo sapiens, UniProt P10635); experiment: Inhibition of human recombinant CYP2D6 expressed in baculovirus-infected insect microsomes; type: ADME, Microsome
[8] = target: Cytochrome P450 3A4 (Homo sapiens, UniProt P08684); experiment: Inhibition of human recombinant CYP3A4 expressed in baculovirus-infected insect microsomes; type: ADME, Microsome
[9] = target: T1, Cytochrome P450 11B2, mitochondrial
[10] = target: T5, CYP17 (Homo sapiens, UniProt P05093); experiment: in vitro; settings: human CYP17 expressed in Escherichia coli
T5 sequence (P05093 whole entry): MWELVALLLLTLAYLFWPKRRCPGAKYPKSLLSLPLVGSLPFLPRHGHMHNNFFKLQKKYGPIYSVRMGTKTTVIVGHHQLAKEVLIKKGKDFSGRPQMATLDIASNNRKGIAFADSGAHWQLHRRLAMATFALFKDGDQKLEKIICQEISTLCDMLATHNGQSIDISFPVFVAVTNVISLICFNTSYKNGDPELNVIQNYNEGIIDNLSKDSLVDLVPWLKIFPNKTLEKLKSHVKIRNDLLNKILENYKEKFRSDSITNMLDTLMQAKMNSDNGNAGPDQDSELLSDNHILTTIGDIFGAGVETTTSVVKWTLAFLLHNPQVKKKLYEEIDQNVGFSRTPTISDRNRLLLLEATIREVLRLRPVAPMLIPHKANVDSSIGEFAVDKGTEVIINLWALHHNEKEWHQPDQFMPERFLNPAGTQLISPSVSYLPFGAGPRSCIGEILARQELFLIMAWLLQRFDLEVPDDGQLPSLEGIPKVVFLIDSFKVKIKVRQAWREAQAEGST
Description: Inhibition of human CYP17 expressed in Escherichia coli at 2.5 uM

[11] = species on record: Homo sapiens; experiment: Selectivity ratio, IC50 for human CYP11B1 to IC50 for human CYP11B2
[12] = target: T6, Cytochrome P450 1A2 (Homo sapiens, UniProt P05177)
T6 sequence (P05177 whole entry): T3 sequence (P05177 whole entry)

[13] = target: T7, Cytochrome P450 11B1, mitochondrial (Homo sapiens, UniProt P15538)
T7 sequence (P15538 whole entry): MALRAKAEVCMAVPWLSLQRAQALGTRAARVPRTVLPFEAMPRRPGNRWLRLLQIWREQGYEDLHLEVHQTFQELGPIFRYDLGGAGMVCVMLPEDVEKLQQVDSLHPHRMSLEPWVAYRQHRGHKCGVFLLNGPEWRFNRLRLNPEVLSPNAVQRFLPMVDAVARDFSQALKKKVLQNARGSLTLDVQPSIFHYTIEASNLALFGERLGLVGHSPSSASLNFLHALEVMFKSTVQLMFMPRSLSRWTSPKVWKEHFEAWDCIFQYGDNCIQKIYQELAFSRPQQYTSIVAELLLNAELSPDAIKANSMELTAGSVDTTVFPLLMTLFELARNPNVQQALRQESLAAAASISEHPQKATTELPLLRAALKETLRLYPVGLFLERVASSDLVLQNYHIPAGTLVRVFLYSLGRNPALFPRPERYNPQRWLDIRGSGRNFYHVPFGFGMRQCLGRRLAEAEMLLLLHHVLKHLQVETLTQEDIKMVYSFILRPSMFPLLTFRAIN

[14] = Terminal half life in Wistar rat at 5 mg/kg, po by cassette dosing; type: ADME, organism-based; set-up: dose 5 mg/kg, route oral; settings: in vivo, read-out: beta t1/2 (converted)
[15] = Cmax in Wistar rat at 5 mg/kg, po by cassette dosing; type: ADME, organism-based; set-up: dose 5 mg/kg, route oral; settings: in vivo
[16] = AUC (0 to infinity) in Wistar rat at 5 mg/kg, po by cassette dosing; type: ADME, organism-based; set-up: time infinity, dose 5 mg/kg, route oral; settings: plasma

Chain of Cytochrome P450 2C9 (P11712 whole entry): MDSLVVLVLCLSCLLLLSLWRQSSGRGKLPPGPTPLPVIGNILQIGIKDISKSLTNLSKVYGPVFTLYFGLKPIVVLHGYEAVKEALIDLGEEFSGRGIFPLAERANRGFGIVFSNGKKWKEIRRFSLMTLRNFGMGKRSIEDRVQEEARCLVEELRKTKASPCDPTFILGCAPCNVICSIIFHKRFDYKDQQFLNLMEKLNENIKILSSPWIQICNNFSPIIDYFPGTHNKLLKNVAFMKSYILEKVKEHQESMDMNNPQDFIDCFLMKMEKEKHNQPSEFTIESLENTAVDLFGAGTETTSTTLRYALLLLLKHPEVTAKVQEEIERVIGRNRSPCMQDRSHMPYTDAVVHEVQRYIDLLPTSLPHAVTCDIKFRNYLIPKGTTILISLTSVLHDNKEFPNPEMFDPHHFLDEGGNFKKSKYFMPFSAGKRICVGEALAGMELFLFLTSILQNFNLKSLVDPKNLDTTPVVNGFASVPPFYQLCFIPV
Chain of Cytochrome P450 3A4 (P08684 whole entry): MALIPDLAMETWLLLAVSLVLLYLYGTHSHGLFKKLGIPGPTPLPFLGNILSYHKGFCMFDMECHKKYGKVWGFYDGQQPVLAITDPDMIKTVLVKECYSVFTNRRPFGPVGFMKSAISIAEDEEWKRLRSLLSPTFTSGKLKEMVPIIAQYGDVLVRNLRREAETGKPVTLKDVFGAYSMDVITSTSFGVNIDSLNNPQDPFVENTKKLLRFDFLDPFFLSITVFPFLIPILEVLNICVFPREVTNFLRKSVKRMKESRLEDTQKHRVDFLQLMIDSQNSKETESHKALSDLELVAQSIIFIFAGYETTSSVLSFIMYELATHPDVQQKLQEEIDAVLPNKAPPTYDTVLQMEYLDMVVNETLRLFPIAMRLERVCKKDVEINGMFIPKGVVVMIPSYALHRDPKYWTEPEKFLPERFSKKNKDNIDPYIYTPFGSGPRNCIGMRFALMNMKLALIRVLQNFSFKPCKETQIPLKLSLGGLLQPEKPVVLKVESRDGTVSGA
Chain of Cytochrome P450 2D6 (P10635 whole entry): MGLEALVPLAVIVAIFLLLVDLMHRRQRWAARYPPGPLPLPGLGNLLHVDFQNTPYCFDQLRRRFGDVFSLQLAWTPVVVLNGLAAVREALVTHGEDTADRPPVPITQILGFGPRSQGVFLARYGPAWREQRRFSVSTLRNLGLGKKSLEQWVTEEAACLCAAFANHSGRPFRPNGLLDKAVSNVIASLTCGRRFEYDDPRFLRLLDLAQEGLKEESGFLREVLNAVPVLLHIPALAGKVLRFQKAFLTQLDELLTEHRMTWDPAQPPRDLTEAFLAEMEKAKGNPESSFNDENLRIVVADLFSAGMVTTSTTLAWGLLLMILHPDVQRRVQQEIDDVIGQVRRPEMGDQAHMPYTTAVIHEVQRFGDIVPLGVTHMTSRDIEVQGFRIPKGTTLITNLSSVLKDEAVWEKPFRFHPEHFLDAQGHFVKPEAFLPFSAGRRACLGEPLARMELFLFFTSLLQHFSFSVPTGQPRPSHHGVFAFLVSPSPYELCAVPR
Chain of Cytochrome P450 2C19 (P33261 whole entry): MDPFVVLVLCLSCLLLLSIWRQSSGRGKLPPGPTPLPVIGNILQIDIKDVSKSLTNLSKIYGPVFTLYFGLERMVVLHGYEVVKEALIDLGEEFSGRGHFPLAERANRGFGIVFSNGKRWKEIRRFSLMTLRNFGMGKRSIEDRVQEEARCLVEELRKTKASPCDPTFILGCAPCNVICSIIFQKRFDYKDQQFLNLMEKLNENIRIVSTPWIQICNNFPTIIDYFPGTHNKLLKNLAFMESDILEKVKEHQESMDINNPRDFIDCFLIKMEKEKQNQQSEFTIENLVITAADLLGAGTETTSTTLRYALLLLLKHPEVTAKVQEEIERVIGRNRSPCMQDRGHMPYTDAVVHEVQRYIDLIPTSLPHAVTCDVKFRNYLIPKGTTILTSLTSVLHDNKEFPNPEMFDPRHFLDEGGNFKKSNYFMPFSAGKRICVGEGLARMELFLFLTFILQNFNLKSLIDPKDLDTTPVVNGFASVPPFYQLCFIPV

Compound	inhibition at 0.5 µM [1]	inhibition at 0.5 µM [2]	inhibition at 2 µM [3]	IC50 [9]	inhibition at 2.5 µM [10]	Ratio IC50 [11]	IC50 [12]	IC50 [13]	also measured
COC1CCc2cc(-c3cccnc3)ccc2C1 (stereo unspecified)	97%	22%	80%	0.0033 µM	44%	347			IC50 [4]: 47.4 µM; IC50 [5]: 16.3 µM; IC50 [6]: < 200 µM; IC50 [7]: < 200 µM; IC50 [8]: 12.2 µM
COc1cncc(-c2ccc3c(c2)CCC(=O)N3C)c1		5%	20%		< 5%		16.5 µM		
N#CC1=Cc2ccc(-c3cccnc3)cc2CC1	97%	< 5%	90%	0.0016 µM	74%	181	0.18 µM	0.29 µM	
c1cncc(-c2ccc3c(c2)CCCC3)c1	82%			0.029 µM		68		1.98 µM	
CCOC1CCc2cc(-c3cccnc3)ccc2C1 (stereo unspecified)			73%				0.62 µM		
O=C1CSc2cc(-c3cccnc3)ccc2N1				0.012 µM				0.525 µM	
N#CC1CCc2cc(-c3cccnc3)ccc2C1 (stereo unspecified)			72%				0.66 µM		
O=C1Cc2cc(-c3cccnc3)ccc2N1			25%						
CN1C(=O)CCc2cc(-c3cncc4ccccc34)ccc21				0.0001 µM				0.0069 µM	
CCN1C(=O)CCc2cc(-c3cccnc3)ccc21		63%	36%	0.022 µM	< 5%		3.48 µM	5.18 µM	
O=C1CCc2cc(-c3cccnc3)cc(Cl)c2N1		17%	14%		7%		30.6 µM		
COc1cncc(-c2ccc3c(c2)CCC(=O)N3)c1	91%	< 5%	25%	0.0027 µM	12%	126	5.24 µM	0.339 µM	
N#Cc1ccc(C2CCCc3cncn32)cc1 (stereo unspecified) [FADROZOLE]									half-life [14]: 3.2 h; Cmax [15]: 0.471 µg/mL; AUC(0-inf) [16]: 3.21 µg·h/mL
S=C1CCc2cc(-c3cccnc3)cc(Cl)c2N1	97%			0.0042 µM		183		0.769 µM	
S=C1CCc2cc(-c3cccnc3)ccc2N1		< 5%	77%	0.0031 µM	72%		0.64 µM	0.58 µM	
CN1CCOc2cc(-c3cccnc3)ccc21	71%			0.101 µM		59		5.97 µM	
OC1CCc2cc(-c3cccnc3)ccc2C1 (stereo unspecified)	86%	23%	74%	0.044 µM	49%	112	0.6 µM	4.92 µM	
c1cncc(-c2ccc3ccccc3c2)c1			99%		40%				
